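1) Cells in 96-well plates. 2) Compound, 48 h, 5 concentrations. 3) Linear interpolation between surrounding doses. 4) Unreached endpoint = highest concentration. TGI: total growth inhibition.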
Experiments:
Assay in all cases: NCI tumour cell line growth inhibition, 48 h
CAKI-1 renal = system: CAKI-1 renal
NCI/ADR-RES ovarian = system: NCI/ADR-RES ovarian
SF-539 CNS = system: SF-539 CNS
OVCAR-5 ovarian = system: OVCAR-5 ovarian
MOLT-4 leukemia = system: MOLT-4 leukemia
NCI-H460 lung = system: NCI-H460 lung
U251 CNS = system: U251 CNS
MDA-MB-435 = system: MDA-MB-435
COLO 205 colon = system: COLO 205 colon
DU-145 prostate = system: DU-145 prostate

SMILES	TGI (CAKI-1 renal) [µM]	TGI (NCI/ADR-RES ovarian) [µM]	TGI (SF-539 CNS) [µM]	TGI (OVCAR-5 ovarian) [µM]	TGI (MOLT-4 leukemia) [µM]	TGI (NCI-H460 lung) [µM]	TGI (U251 CNS) [µM]	TGI (MDA-MB-435) [µM]	TGI (COLO 205 colon) [µM]	TGI (DU-145 prostate) [µM]
[O-]/[N+](=C\c1ccccc1OC(=S)S)c1ccc(Cl)cc1	> 100	> 100	> 100	> 100	> 100	> 100	> 100	47.3	26.7	> 100
O=c1cc(-c2cc(O)c(O)c(-c3c(O)cc4oc(-c5ccc(O)c(O)c5)cc(=O)c4c3O)c2)oc2cc(O)cc(O)c12	> 25	> 25	> 25	> 25	> 25	> 25	> 25	> 25	> 25	> 25
COc1c(O)c2c(=O)cc(OC)c3c4c(OC)cc(=O)c5c(O)c(OC)c6c(c(c1C(C(C)O)C6C(C)O)c23)c54 (stereo not drawn)	0.842	3.66	2.11	7.62	1.25	1.18	11.3	5.44	4.22	8.14
CCCCn1c(-c2ccc([N+](=O)[O-])cc2)cs/c1=N/N=C1\C(=O)Nc2ccc(Br)cc21	63.2	37.4	28	> 100	46.5	38.3	22.9	37.3	28.7	30
COc1ccc(NC(=S)NC(=O)c2ccc3c(c2)Sc2ccccc2O3)c([N+](=O)[O-])c1	> 100	> 100	> 100	> 100	> 100	> 100	60.6	> 100	> 100	> 100
COc1ccc(COCC[C@H](C)OC2OC(CO[Si](C)(C)C(C)(C)C)C(OC(=O)CCCN=[N+]=[N-])C(OC(=O)CCCN=[N+]=[N-])C2OC(=O)CCCN=[N+]=[N-])cc1 (stereo partly drawn)	> 100	60.9	> 100	> 100	–	> 100	> 100	> 100	83.1	> 100
C=Cc1ccccc1C1(O)C=CC(OC)(OC)C=C1	18.4	29.4	6.4	20.2	10.6	21.9	12.7	14	25.9	68.8
COC(=O)C1(Cc2ccc3c(c2)CCC3)Cc2ccccc2C1	> 100	> 100	> 100	> 100	31	> 100	> 100	> 100	67.8	> 100
C\C(=N/N=C1/C(=C\N(C)C)C(=O)NC(=O)N1C)c1ccc(Cl)cc1	> 100	> 100	> 100	> 100	> 100	> 100	> 100	> 100	> 100	> 100
CO[C@@H]1O[C@H](C(=O)c2ccccc2)[C@H]2OC(C)(C)O[C@@H]12	> 100	> 100	> 100	> 100	> 100	> 100	> 100	> 100	> 100	> 100
CCOC(=O)c1cn2c(n1)sc1cc(Cl)cc(Cl)c12	> 100	> 100	> 100	> 100	> 100	> 100	> 100	> 100	> 100	> 100
O=c1[nH]c(Nc2cccc(CO)c2)nc2nc[nH]c12	> 100	> 100	> 100	> 100	> 100	–	> 100	> 100	> 100	> 100
OCc1ccc2c(c1)CC1(Cc3ccc(/C=N/O)cc3C1)C2 (stereo not drawn)	> 89.7	37	11.3	> 87.7	> 40.4	18.9	> 49.3	1.51	13.9	> 100
O=C(Nc1noc(-c2ccccc2)n1)c1ccccc1CNc1noc(-c2ccccc2)n1	> 100	> 100	> 100	> 100	> 100	> 100	> 100	> 100	> 100	> 100
COc1cc2c(cc1Cc1c(F)cccc1Cl)nc(-c1c(F)cccc1Cl)n2Cc1c(F)cccc1Cl	91.3	> 100	60.1	> 100	> 100	> 100	> 100	> 100	> 100	> 100
Nc1nn2c(=O)c3ccccc3nc2s1	> 100	> 100	> 100	> 100	53.1	> 100	> 100	> 100	> 100	> 100
